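Tested at 5 concentrations; 48 h exposure; 96-well plates; endpoints linearly interpolated, else capped at highest concentration. GI50 is the concentration that inhibits growth by half.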 Calls of active or inactive are those of the source. Rule as the data show it: active = GI50 up to about 1.1 µM and inactive = higher.
Key:
Assay in all cases: DTP human tumour cell line panel, 48 h
[1] = tested on: U-251
[2] = tested on: SF-295
[3] = tested on: CCRF-CEM
[4] = tested on: RXF 393
[5] = tested on: SK-MEL-28
[6] = tested on: MCF7
[7] = tested on: MDA-MB-231
[8] = tested on: NCI/ADR-RES
[9] = tested on: HCT-15
[10] = tested on: Hs-578T
[11] = tested on: SF-268
[12] = tested on: NCI-H522
[13] = tested on: SF-539
[14] = tested on: HOP-92
[15] = tested on: HL-60
[16] = tested on: NCI-H460
[17] = tested on: COLO 205
[18] = tested on: HCC 2998
[19] = tested on: SNB-19
[20] = tested on: PC-3

Compound	GI50 [1]	GI50 [2]	GI50 [3]	GI50 [4]	GI50 [5]	GI50 [6]	GI50 [7]	GI50 [8]	GI50 [9]	GI50 [10]	GI50 [11]	GI50 [12]	GI50 [13]	GI50 [14]	GI50 [15]	GI50 [16]	GI50 [17]	GI50 [18]	GI50 [19]	GI50 [20]
CS(=O)(=O)Nc1ccc(Nc2c3ccccc3nc3ccccc23)cc1	1.74 µM (inactive)	1.66 µM (inactive)	0.459 µM (active)	5.73 µM (inactive)	4.75 µM (inactive)	1.07 µM (active)	3.56 µM (inactive)	7.28 µM (inactive)	2.31 µM	6.43 µM (inactive)	2.78 µM (inactive)	2.06 µM (inactive)	3.4 µM (inactive)	4.78 µM (inactive)	0.389 µM (active)	0.112 µM (active)	1.69 µM (inactive)	4.25 µM (inactive)	2.03 µM (inactive)	2.62 µM (inactive)
C=C1CC2(OC1=O)c1ccccc1CCc1ccccc12	9.12 µM (inactive)	16.1 µM (inactive)	0.627 µM (active)	1.66 µM (inactive)	1.81 µM (inactive)	4.59 µM (inactive)	9.27 µM (inactive)	1.63 µM (inactive)	1.91 µM	1.94 µM (inactive)	1.93 µM (inactive)	1.71 µM (inactive)	2.13 µM (inactive)	1.72 µM (inactive)	0.729 µM (active)	12.5 µM (inactive)	1.91 µM (inactive)	2.54 µM (inactive)	7.62 µM (inactive)	14.3 µM (inactive)
CC[C@H](C)c1occ2c(O)c(C(=O)O)c(=O)cc-2c1C	28.5 µM (inactive)	31.3 µM (inactive)	17.5 µM (inactive)	15.5 µM (inactive)		29.2 µM (inactive)	23 µM (inactive)	20.3 µM (inactive)	16.7 µM	48.5 µM (inactive)	33.7 µM (inactive)	14.7 µM (inactive)	20.7 µM (inactive)	21.8 µM (inactive)	12.7 µM (inactive)	24.3 µM (inactive)	19.3 µM (inactive)	21.1 µM (inactive)	31.7 µM (inactive)	33.5 µM (inactive)
Cn1ccnc1Sc1ccc(/C=N/c2ccc3nc(SCC(=O)NC4CCCCC4)sc3c2)cc1[N+](=O)[O-]	8.09 µM (inactive)	13.2 µM (inactive)	> 100 µM (inactive)	7.45 µM (inactive)	> 100 µM (inactive)	> 100 µM (inactive)	31.4 µM (inactive)	> 100 µM (inactive)	> 100 µM	18.6 µM (inactive)	22.6 µM (inactive)	65.9 µM (inactive)	5.68 µM (inactive)	12.1 µM (inactive)	> 100 µM (inactive)	> 100 µM (inactive)	> 100 µM (inactive)	> 100 µM (inactive)	13.7 µM (inactive)	> 100 µM (inactive)
N#Cc1c(-c2ccc([N+](=O)[O-])cc2)cc(-c2ccc(Nc3ccnc4cc(Cl)ccc34)cc2)nc1N	1.84 µM (inactive)	19 µM (inactive)	1.11 µM (active)	17.4 µM (inactive)	6.25 µM (inactive)	1.61 µM (inactive)	16.9 µM (inactive)	4.12 µM (inactive)	2.76 µM	11.6 µM (inactive)	14.9 µM (inactive)	3.85 µM (inactive)	31.1 µM (inactive)	29.7 µM (inactive)	12.4 µM (inactive)	7.24 µM (inactive)	25.5 µM (inactive)	11.4 µM (inactive)	25.2 µM (inactive)	6.49 µM (inactive)
C=CC(C)(C)n1cc(C2=C3OC(=O)C(c4cn(C(C)(C)C=C)c5ccccc45)=C3OC2=O)c2ccccc21	> 100 µM (inactive)	> 100 µM (inactive)	> 100 µM (inactive)	> 100 µM (inactive)	> 100 µM (inactive)	> 100 µM (inactive)	> 100 µM (inactive)	> 100 µM (inactive)	> 100 µM	> 10 µM (inactive)	> 100 µM (inactive)	> 100 µM (inactive)	> 100 µM (inactive)	> 100 µM (inactive)	> 100 µM (inactive)	> 100 µM (inactive)	> 100 µM (inactive)	> 100 µM (inactive)	> 100 µM (inactive)	> 100 µM (inactive)
O=C1N[C@H]2c3c(Cl)sc(Cl)c3C(=O)[C@H]2O1	5.51 µM (inactive)	18.8 µM (inactive)	2.58 µM (inactive)	25.6 µM (inactive)	6.79 µM (inactive)	39.8 µM (inactive)	25.6 µM (inactive)	15.5 µM (inactive)	2.38 µM	17.9 µM (inactive)	17 µM (inactive)	1.68 µM (inactive)	9.68 µM (inactive)	18.5 µM (inactive)	1.79 µM (inactive)	8.89 µM (inactive)	14 µM (inactive)	5.46 µM (inactive)	20.6 µM (inactive)	18.2 µM (inactive)
C/C(=N\O)c1ccc(OCc2cc(C(F)(F)F)cc(C(F)(F)F)c2)cc1	34.4 µM (inactive)	55.2 µM (inactive)	15.9 µM (inactive)	21.8 µM (inactive)	61.9 µM (inactive)	20 µM (inactive)	> 100 µM (inactive)	61.2 µM (inactive)	30.5 µM	37.8 µM (inactive)	43.2 µM (inactive)	38.1 µM (inactive)	60.5 µM (inactive)	17.6 µM (inactive)	4.13 µM (inactive)	23.4 µM (inactive)	29.9 µM (inactive)	32.1 µM (inactive)	64.1 µM (inactive)	34.1 µM (inactive)
NC(=O)C(Nc1ccc(Cl)cc1)c1cc2cc(Br)ccc2nc1Cl (stereo not drawn)		> 50 µM (inactive)	23.8 µM (inactive)	41.1 µM (inactive)	48 µM (inactive)	40.8 µM (inactive)	> 50 µM (inactive)	> 50 µM (inactive)	> 50 µM	> 50 µM (inactive)	> 50 µM (inactive)	31.5 µM (inactive)	18.5 µM (inactive)	17.7 µM (inactive)	> 50 µM (inactive)	> 50 µM (inactive)	> 50 µM (inactive)	> 50 µM (inactive)	> 50 µM (inactive)	> 50 µM (inactive)
CCCCCCCC(CC(=O)NC(CO)C(=O)NC(CO)CC(C)C)OC(=O)CC(CCCCCCC)OC(=O)CC(CCCCCCC)OC1OC(C)C(O)C(OC2OC(C)C(O)C(O)C2O)C1O (stereo not drawn)	11.1 µM (inactive)	14 µM (inactive)	3.37 µM (inactive)	13.7 µM (inactive)	7.94 µM (inactive)	0.614 µM (active)	13.2 µM (inactive)	17.9 µM (inactive)	19.7 µM	8.45 µM (inactive)	8.41 µM (inactive)	13 µM (inactive)	11.7 µM (inactive)	12 µM (inactive)	3.26 µM (inactive)	6.73 µM (inactive)	8.87 µM (inactive)	1.52 µM (inactive)	12.2 µM (inactive)	12.7 µM (inactive)
c1ccc2c(c1)N=c1ccccc1=P21c2ccccc2Nc2ccccc21	0.366 µM (active)	0.942 µM (active)	0.174 µM (active)	0.438 µM (active)	0.986 µM (active)	0.457 µM (active)	2.69 µM (inactive)	76 µM (inactive)	17.2 µM	0.382 µM (active)	0.614 µM (active)	0.216 µM (active)	0.619 µM (active)	0.332 µM (active)	0.186 µM (active)	0.186 µM (active)	0.129 µM (active)	0.598 µM (active)	0.325 µM (active)	0.242 µM (active)
C=CC[C@]12C=C(OC)[C@@H](O)[C@](OC)(C(c3cc(OC)c4c(c3)OCO4)[C@H]1C)[C@H]2OC(C)=O (stereo partly drawn)	> 100 µM (inactive)	> 100 µM (inactive)	> 100 µM (inactive)	> 100 µM (inactive)	> 100 µM (inactive)	> 100 µM (inactive)	> 100 µM (inactive)	> 100 µM (inactive)	> 100 µM	22.6 µM (inactive)	8.34 µM (inactive)	> 100 µM (inactive)	> 100 µM (inactive)	83.6 µM (inactive)	91 µM (inactive)	> 100 µM (inactive)	> 100 µM (inactive)	> 100 µM (inactive)	> 100 µM (inactive)	62.5 µM (inactive)
COc1cc2c(cc1C[N+](C)(C)CSc1ccccc1)-c1ccccc1CC2	4.14 µM (inactive)	12.2 µM (inactive)	3.64 µM (inactive)	6.53 µM (inactive)	4.31 µM (inactive)	5 µM (inactive)	2.86 µM (inactive)	37.5 µM (inactive)	16.5 µM	4.99 µM (inactive)	5.32 µM (inactive)	2.01 µM (inactive)	7.96 µM (inactive)	8.51 µM (inactive)	0.721 µM (active)	3.29 µM (inactive)	1.75 µM (inactive)	4.31 µM (inactive)	4.28 µM (inactive)	2.61 µM (inactive)
Cc1cc(=O)oc2c(C)c(O)ccc12	> 100 µM (inactive)	> 100 µM (inactive)	> 100 µM (inactive)	> 100 µM (inactive)	> 100 µM (inactive)	> 100 µM (inactive)	> 100 µM (inactive)	> 100 µM (inactive)	> 100 µM	> 100 µM (inactive)	> 100 µM (inactive)	> 100 µM (inactive)	> 100 µM (inactive)	> 100 µM (inactive)	48.6 µM (inactive)	> 100 µM (inactive)	> 100 µM (inactive)	> 100 µM (inactive)	> 100 µM (inactive)	> 100 µM (inactive)

From ChEMBL document CHEMBL1201862, “PubChem BioAssay data set” (2004)
